Assay results published in patent US20070167512A1, “Lipid metabolism improving agent” (Kyowa Hakko Kogyo Co., Ltd., priority 2003, published 2007).

Tests used:
[1] = test system: KK-Ay/Ta Jcl mice (animal models for hypertriglyceridemia and hyper-free fatty acidemia); experiment: Serum triglyceride concentration in KK-Ay/Ta Jcl mice fed compound-supplemented CE-2 feed (Triglyceride G-Test Wako); type: in vivo; settings: for Triglyceride (serum concentration): KK-Ay/Ta Jcl male mice, 1% by weight in CE-2 feed ad libitum, serum after 18 h fast, 10th-11th day, mean ± standard error (n=5), Group 1 (CE-2 only) 282.4 ± 30.3; for Action for improving hypertriglyceridemia (conclusion) / Serum triglyceride concentration as compared with Group 1 (in words): KK-Ay/Ta Jcl mice, 1% by weight in feed; for Serum triglyceride concentration as compared with Group 1 (in words): t-test, p < 0.01 where significant
Description: (§1) KK-Ay/Ta Jcl mice (CLEA JAPAN; males; six weeks age) (25 mice) which are animal models for appearing hypertriglyceridemia and hyper-free fatty acidemia were divided into five groups each comprising five mice and named group 1 to group 5.
(§2) The mice of group 1 to group 5 were made free to take feed and water. A commercially available feed CE-2 (manufactured by CLEA JAPAN) was ingested to the mice of group 1. CE-2 to which 1% by weight of trans-4-hydroxy-L-proline (manufactured by Kyowa Hakko Kogyo; hereinafter, abbreviated as hydroxyproline) was added was ingested to the mice of group 2. CE-2 to which 1% by weight of trans-N-acetyl-4-hydroxy-L-proline (manufactured by Kyowa Hakko Kogyo; hereinafter, abbreviated as N-acetylhydroxyproline) was added was ingested to the mice of group 3. CE-2 to which 1% by weight of trans-4-hydroxy-L-proline ethyl ester (manufactured by Sanyo Kagaku Kenkyusho; hereinafter, abbreviated as hydroxyproline ethyl ester) was added was ingested to the mice of group 4. CE-2 to which 1% by weight of trans-N,O-diacetyl-4-hydroxy-L-proline oleyl ester (manufactured by Nissei Kagaku; hereinafter, abbreviated as diacetylhydroxyproline oleyl ester) was added was ingested to the mice of group 5.
(§3) The mice were fasted for 18 hours during the 10th day to the 11th day after the start of the test and whole blood was collected from descending vena carva to prepare serum. Concentration of triglyceride in the serum was measured by a Triglyceride G-Test Wako (manufactured by Wako Pure Chemical) and concentration of free fatty acids therein was measured by an NEFA C-Test Wak (manufactured by Wako Pure Chemical). The value was shown by mean value ± standard error (n=5) and statistic ratio of risk (p value) was determined by a t-test. With regard to the ingested amounts during the test period, there was no significant difference among the groups 1 to 5.

[2] = test system: KK-Ay/Ta Jcl mice (animal models for hypertriglyceridemia and hyper-free fatty acidemia); experiment: Serum free fatty acid concentration in KK-Ay/Ta Jcl mice fed compound-supplemented CE-2 feed (NEFA C-Test); type: in vivo; settings: for Free Fatty Acid (serum concentration): KK-Ay/Ta Jcl male mice, 1% by weight in CE-2 feed ad libitum, serum after 18 h fast, 10th-11th day, mean ± standard error (n=5), Group 1 (CE-2 only) 1.12 ± 0.05; for Action for improving hyper-free fatty acidemia (conclusion) / Free fatty acid concentration in serum as compared with Group 1 (in words): KK-Ay/Ta Jcl mice, 1% by weight in feed; for Free fatty acid concentration in serum as compared with Group 1 (in words): t-test, p < 0.005 where significant
Description: as §1, §2, §3

Compound	Triglyceride (serum concentration) [1]	Action for improving hypertriglyceridemia (conclusion) [1]	Serum triglyceride concentration as compared with Group 1 (in words) [1]	Free Fatty Acid (serum concentration) [2]	Action for improving hyper-free fatty acidemia (conclusion) [2]	Free fatty acid concentration in serum as compared with Group 1 (in words) [2]
CCCCCCCC/C=C\CCCCCCCCOC(=O)[C@@H]1C[C@@H](OC(C)=O)CN1C(C)=O (relative stereo) [diacetylhydroxyproline oleyl ester, trans-N,O-diacetyl-4-hydroxy-L-proline oleyl ester]	217.6 ± 18.3 mg/dL	action for improving hypertriglyceridemia	tended to show low values	1.00 ± 0.07 mEq/l	action for improving hyper-free fatty acidemia	tended to show low values
CC(=O)N1C[C@H](O)C[C@H]1C(=O)O [N-acetylhydroxyproline, trans-N-acetyl-4-hydroxy-L-proline]	156.4 ± 23.3 mg/dL	action for improving hypertriglyceridemia	significantly low	0.77 ± 0.06 mEq/l	action for improving hyper-free fatty acidemia	significantly low
CCOC(=O)[C@@H]1C[C@@H](O)CN1 [hydroxyproline ethyl ester, trans-4-hydroxy-L-proline ethyl ester]	168.7 ± 13.4 mg/dL	action for improving hypertriglyceridemia	significantly low	0.68 ± 0.02 mEq/l	action for improving hyper-free fatty acidemia	significantly low
O=C(O)[C@@H]1C[C@@H](O)CN1 [hydroxyproline, trans-4-hydroxy-L-proline]	224.3 ± 23.1 mg/dL	action for improving hypertriglyceridemia	tended to show low values	0.84 ± 0.05 mEq/l	action for improving hyper-free fatty acidemia	significantly low
